Data published in PMC6396489 (Cell Communication and Signaling : CCS, 2019).
Where a chain is given by its changes, count along the chain named.

Assays:
Shp1 = target: T1, Shp1 (Homo sapiens, UniProt P29350); experiment: SPR competition assay with free GroPIns4P; settings: Shp1 1.2 μM; read-out: EC50 of competition with Shp1 binding to GroPIns4P-Bio chip
T1 construct: the C-terminal truncated form of human Shp1 cDNA (His-Shp1; amino acids 1–529); made in house; host or cells: E. coli BL21(DE3)
T1 sequence (P29350 1-529 isoform P29350-3): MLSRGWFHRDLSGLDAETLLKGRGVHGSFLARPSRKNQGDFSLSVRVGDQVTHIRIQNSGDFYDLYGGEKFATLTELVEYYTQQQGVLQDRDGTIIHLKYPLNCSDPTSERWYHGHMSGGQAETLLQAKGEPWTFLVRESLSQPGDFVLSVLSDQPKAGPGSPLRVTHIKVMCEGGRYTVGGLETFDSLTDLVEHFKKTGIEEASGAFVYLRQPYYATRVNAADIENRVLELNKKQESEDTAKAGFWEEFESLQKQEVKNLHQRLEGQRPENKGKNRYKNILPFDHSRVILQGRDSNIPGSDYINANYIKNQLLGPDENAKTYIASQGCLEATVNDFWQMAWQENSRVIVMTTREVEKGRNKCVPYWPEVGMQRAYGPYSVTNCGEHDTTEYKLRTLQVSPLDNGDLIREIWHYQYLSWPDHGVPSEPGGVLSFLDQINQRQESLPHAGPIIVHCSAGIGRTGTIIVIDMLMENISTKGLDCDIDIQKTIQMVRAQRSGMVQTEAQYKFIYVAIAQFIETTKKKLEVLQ
Protocol: For the competition experiments, SPR assays were performed at a fixed concentration of Shp1 (1.2 μM) in the presence of increasing concentrations of GroPIns4P (0.0 to 5.0 μM). Both Shp1 and GroPIns4P were dissolved in HBS-EP buffer and incubated for 10 min before injection onto the SA sensor chip. The flow was fixed to 20 μL/min, and the time of injection was 3 min. A solution of 2.0 mM glycine/HCl, pH 3.0, was used in the regeneration step to remove the analyte bond before reusing the sensor chip.

[1] = target: T2, Shp1 S118A/R138E/S140A mutant (Homo sapiens, UniProt P29350, R136E/S116A/S138A); experiment: Isothermal titration calorimetry, Shp1 S118A/R138E/S140A mutant; format: binding; settings: very small heat effect, value not with sufficient confidence
T2 construct: a tailless-form of Shp1 (residues 1–529) has previously been used [25] and it is used also in this study; 6xHis (N); made in house; host or cells: E. coli BL21(DE3)
T2 sequence (P29350 1-529 isoform P29350-3 S118A/R138E/S140A): T1 sequence (P29350 1-529 isoform P29350-3) with S118A, R138E, S140A
Protocol: ITC measurements were performed by using a Nano-ITC III (TA instruments, New Castle, DE, USA) with a reaction cell volume of 1 ml kept at 25 °C. A protein solution of 10 μM was titrated into the calorimetric cell with a solution of 50–100 μM of the ligand GroPIns4P (Ins4P) in the syringe. A sequence of 16 injections of 15 μL volume was programmed with a stirring speed of 250 rpm at 500 s intervals. Protein samples were prepared with protein solutions at 25 °C in 20 mM Tris buffer pH 7.4 with 50 mM NaCl and 1 mM TCEP. To minimise the differences in buffer composition and pH between cell and syringe, both ligand and protein solutions were prepared with the same batch of buffer. The heat of dilution of the GroPIns4P into the buffer solution was measured in a separate experiment and appropriate corrections were made. The heat evolved after each ligand injection was obtained from the integral of the calorimetric signal. Raw data were integrated, corrected for non-specific heats and normalized for concentration. The equilibrium dissociation constant (KD), binding enthalpy (ΔbH) and binding stoichiometry (n) were obtained by nonlinear regression of the experimental data using a model of independent binding sites, by means of the NanoAnalyze software. Experiments were performed in duplicate.

[2] = target: T2, Shp1 S118A/R138E/S140A mutant; experiment: Trp fluorescence emission spectroscopy of Shp1 S118A/R138E/S140A mutant; format: binding; settings: S118A/R138E/S140A vs wild type
Protocol: The absorption spectra of Shp1 were recorded using a Varian Cary 1 spectrophotometer. Steady-state fluorescence emission measurements were performed with a K2 fluorometer (ISS, Champaign, IL, USA) equipped with a two-cell temperature-controlled sample holder. To selectively excite Trp residues, the excitation wavelength was set at 295 nm with a slit width of 1 nm. To avoid the inner-filter effect, all steady-state fluorescence measurements were performed on Shp1 with optical densities at 295 nm less than 0.1 OD. All measurements were made at 25 °C with the temperature of the samples determined in the cuvette with an accuracy of ±0.2 °C. For each experiment, the Shp1 concentration was fixed at 1.2 μM, while GroPIns4P was varied from 0.0 to 5.0 μM. Thus, a 500 μL solution containing 1.2 μM Shp1 dissolved in PBS pH 7.4 was titrated by successive additions of GroPIns4P (dissolved in PBS buffer, pH 7.4). After each addition, the samples were incubated for 2 min and fluorescence emission spectra were recorded between 310 and 410 nm in triplicate. To exclude the influence of sample dilution, fluorescence titration experiments were performed by adding the same amount of PBS buffer in the total volume (500 μL).

O=P(O)(O)OC1C(O)C(O)C(OP(=O)(O)OCC(O)CO)C(O)C1O (stereo not drawn) [GroPIns4P, glycerophosphoinositol 4-phosphate]
EC50 (Shp1): ~800 nM | KD relative to Shp1 WT [1]: about one order of magnitude higher | decrease of binding efficiency of the mutated protein [2]: up to 50%
